Experimental findings from US10670605B2, “Cysteine reactive probes and uses thereof” (The Scripps Research Institute, priority 2015, dated 2020) are described below.

Common to all, as to assay: Competitive isoTOP-ABPP in situ (fragment-treated cells)
Holding throughout (assay type): cell-based

Assay [1] deals with cysteines in MDA-MB-231 and Ramos cells (Homo sapiens, UniProt Q16831). The conditions noted are these: 200 μM, insitu, 231.
Assay [2] has as its target T1, cysteines in MDA-MB-231 and Ramos cells (Homo sapiens, UniProt P10599).
T1 sequence (P10599 1-105): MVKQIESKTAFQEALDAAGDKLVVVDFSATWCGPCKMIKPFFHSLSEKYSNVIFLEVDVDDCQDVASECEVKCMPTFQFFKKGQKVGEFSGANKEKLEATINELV
The conditions noted are these: 200 μM, insitu.

For assay [3], the target named is T2, cysteines in MDA-MB-231 and Ramos cells (Homo sapiens, UniProt P42224).
T2 sequence (P42224 1-750): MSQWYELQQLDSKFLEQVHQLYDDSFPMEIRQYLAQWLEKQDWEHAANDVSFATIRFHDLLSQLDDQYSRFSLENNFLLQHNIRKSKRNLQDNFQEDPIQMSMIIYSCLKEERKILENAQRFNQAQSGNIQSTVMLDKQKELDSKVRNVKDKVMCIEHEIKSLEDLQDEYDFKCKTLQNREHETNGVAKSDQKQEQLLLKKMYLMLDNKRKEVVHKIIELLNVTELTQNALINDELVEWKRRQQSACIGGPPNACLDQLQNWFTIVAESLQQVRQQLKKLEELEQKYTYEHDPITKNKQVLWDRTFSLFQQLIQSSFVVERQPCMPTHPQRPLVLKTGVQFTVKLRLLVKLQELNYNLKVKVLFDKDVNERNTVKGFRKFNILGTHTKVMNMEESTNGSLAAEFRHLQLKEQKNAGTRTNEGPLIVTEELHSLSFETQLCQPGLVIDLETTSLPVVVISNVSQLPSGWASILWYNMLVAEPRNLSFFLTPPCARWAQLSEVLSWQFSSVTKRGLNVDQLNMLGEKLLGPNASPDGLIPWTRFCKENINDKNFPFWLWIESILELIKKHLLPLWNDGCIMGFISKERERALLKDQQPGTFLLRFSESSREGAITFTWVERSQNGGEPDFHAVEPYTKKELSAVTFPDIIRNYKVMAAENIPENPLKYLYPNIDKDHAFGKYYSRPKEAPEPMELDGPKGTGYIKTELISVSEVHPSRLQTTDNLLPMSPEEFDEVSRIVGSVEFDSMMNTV
The following applies: 200 μM, insitu.

The target in assay [4] is T3, cysteines in MDA-MB-231 and Ramos cells (Homo sapiens, UniProt Q96CM8).
T3 sequence (Q96CM8 42-615): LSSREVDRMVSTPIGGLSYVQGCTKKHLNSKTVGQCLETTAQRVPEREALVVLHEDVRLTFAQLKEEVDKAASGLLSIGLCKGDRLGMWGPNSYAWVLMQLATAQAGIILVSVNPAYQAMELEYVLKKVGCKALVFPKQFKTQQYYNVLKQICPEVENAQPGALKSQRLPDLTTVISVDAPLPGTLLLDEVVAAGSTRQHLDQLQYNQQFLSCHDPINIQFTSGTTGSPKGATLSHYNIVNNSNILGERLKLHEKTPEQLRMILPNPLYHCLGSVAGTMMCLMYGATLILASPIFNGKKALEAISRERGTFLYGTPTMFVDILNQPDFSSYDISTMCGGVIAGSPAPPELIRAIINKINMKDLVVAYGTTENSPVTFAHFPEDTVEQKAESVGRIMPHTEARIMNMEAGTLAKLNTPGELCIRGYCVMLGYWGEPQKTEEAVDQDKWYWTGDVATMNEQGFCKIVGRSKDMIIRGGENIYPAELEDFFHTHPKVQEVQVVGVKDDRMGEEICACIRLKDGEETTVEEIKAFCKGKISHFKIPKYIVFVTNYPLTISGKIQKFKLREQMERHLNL
The following applies: 200 μM, insitu.

Assay [5] concerns the target T4, cysteines in MDA-MB-231 and Ramos cells (Homo sapiens, UniProt Q9NQR4).
T4 sequence (Q9NQR4 1-276): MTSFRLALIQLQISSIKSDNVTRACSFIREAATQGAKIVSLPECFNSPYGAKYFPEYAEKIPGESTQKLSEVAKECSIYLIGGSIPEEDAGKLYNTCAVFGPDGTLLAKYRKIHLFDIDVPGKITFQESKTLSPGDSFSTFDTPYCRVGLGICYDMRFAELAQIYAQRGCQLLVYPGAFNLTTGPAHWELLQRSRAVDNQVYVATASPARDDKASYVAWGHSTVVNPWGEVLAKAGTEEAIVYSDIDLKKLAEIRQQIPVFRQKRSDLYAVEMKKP
The following applies: 200 μM, insitu.

For assay [6], the target named is T5, cysteines in MDA-MB-231 and Ramos cells (Homo sapiens, UniProt P51946).
T5 sequence (P51946 1-323): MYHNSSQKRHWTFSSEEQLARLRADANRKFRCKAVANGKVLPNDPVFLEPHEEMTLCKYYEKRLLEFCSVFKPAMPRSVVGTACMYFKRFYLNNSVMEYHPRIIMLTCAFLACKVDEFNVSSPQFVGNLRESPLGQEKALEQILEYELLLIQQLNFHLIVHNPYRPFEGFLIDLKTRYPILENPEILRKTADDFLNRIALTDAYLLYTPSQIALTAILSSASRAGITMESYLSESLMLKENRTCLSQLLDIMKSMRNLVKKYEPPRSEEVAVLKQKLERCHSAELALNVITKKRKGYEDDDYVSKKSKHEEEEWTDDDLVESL
The conditions noted are these: 200 μM, insitu.

The target of assay [7] is cysteines in MDA-MB-231 and Ramos cells (Homo sapiens, UniProt P62888). The conditions noted are these: 200 μM, insitu.
In assay [8] the target is T6, cysteines in MDA-MB-231 and Ramos cells (Homo sapiens, UniProt Q9HAV7).
T6 sequence (Q9HAV7 28-217): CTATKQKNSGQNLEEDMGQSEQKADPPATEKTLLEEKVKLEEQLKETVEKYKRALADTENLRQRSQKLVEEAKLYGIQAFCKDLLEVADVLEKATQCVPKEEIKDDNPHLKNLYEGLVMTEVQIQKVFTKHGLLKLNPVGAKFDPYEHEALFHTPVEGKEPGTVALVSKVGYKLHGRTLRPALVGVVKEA
The conditions noted are these: 200 μM, insitu.

Sequence of cysteines in MDA-MB-231 and Ramos cells (Homo sapiens, UniProt Q16831) (Q16831 whole entry): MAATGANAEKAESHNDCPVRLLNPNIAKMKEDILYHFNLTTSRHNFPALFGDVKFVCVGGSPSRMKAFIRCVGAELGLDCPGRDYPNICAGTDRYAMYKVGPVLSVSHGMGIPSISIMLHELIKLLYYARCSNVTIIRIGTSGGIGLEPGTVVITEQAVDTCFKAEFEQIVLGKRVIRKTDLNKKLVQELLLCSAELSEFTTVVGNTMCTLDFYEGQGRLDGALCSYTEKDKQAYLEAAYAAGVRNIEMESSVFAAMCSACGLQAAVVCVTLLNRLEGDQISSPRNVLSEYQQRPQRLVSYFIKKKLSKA

For the compound `O=C(CCl)NCCc1c[nH]c2ccccc12` [compound 13], the “isoTOP-ABPP ratio Q16831_C162” value in assay [1] was 1.0. In addition, the “isoTOP-ABPP ratio P10599_C32” value in assay [2] (231) turned out to be 7.9; in assay [2] (ramos), 4.1. Besides, in assay [3] (231), the “isoTOP-ABPP ratio P42224_C492” value is recorded as 1.0. Moreover, the “isoTOP-ABPP ratio Q96CM8_C64” value in assay [4] (231) was 1.4. Besides, the “isoTOP-ABPP ratio Q9NQR4_C153” value in assay [5] (231) came out at 6.2; in assay [5] (ramos), 12.2. Besides, the “isoTOP-ABPP ratio P51946_C244” value in assay [6] (231) turned out to be 1.0; in assay [6] (ramos) it was 1.2. The figures for the “isoTOP-ABPP ratio P62888_C92” value in assay [7] (231) and in assay [7] (ramos) were 0.8 and 2.0, respectively.
Consider `CC(C)CCOCCNC(=O)CCl` [compound 27], for which the “isoTOP-ABPP ratio Q16831_C162” value in assay [1] is on record as 0.5. Also, in assay [8] (231), the “isoTOP-ABPP ratio Q9HAV7_C124” value stood at 0.6. In addition, the “isoTOP-ABPP ratio P10599_C32” value in assay [2] (231) was 2.5. In assay [4] (231), the “isoTOP-ABPP ratio Q96CM8_C64” value stood at 1.8. The “isoTOP-ABPP ratio Q9NQR4_C153” value in assay [5] (231) stood at 1.3. For the same compound, the “isoTOP-ABPP ratio P51946_C244” value in assay [6] (231) amounted to 1.1. In addition, in assay [7] (231), the “isoTOP-ABPP ratio P62888_C92” value was determined as 0.6.
As to `COc1ccccc1OCCNC(=O)CCl` [compound 28], in assay [1], the “isoTOP-ABPP ratio Q16831_C162” value came to 0.7. Moreover, in assay [2] (231), the “isoTOP-ABPP ratio P10599_C32” value was determined as 20.0. Besides, the “isoTOP-ABPP ratio P42224_C492” value in assay [3] (231) stood at 0.8. In addition, the “isoTOP-ABPP ratio P62888_C92” value in assay [7] (231) is 0.9.
Turning to `O=C(CCl)N1CCN(CC(=O)N2CCOCC2)CC1` [compound 29], the “isoTOP-ABPP ratio Q9HAV7_C124” value in assay [8] (ramos) came out at 1.0. Besides, in assay [2] (ramos), the “isoTOP-ABPP ratio P10599_C32” value was determined as 1.9. The “isoTOP-ABPP ratio P42224_C492” value in assay [3] (ramos) is given as 3.8. In addition, in assay [4] (ramos), the “isoTOP-ABPP ratio Q96CM8_C64” value is listed as 2.3. Moreover, in assay [6] (ramos), the “isoTOP-ABPP ratio P51946_C244” value was 1.1. Besides, the “isoTOP-ABPP ratio P62888_C92” value in assay [7] (ramos) worked out at 2.0.
Consider `C=CC(=O)N(Cc1cccnc1)c1cc(C(F)(F)F)cc(C(F)(F)F)c1` [compound 31], for which the “isoTOP-ABPP ratio P10599_C32” value in assay [2] (231) stood at 1.2; in assay [2] (ramos), 1.7. For the same compound, the entries for the “isoTOP-ABPP ratio P42224_C492” value in assay [3] (231) and in assay [3] (ramos) were 0.8 and 1.9, respectively. In assay [4] (231), the “isoTOP-ABPP ratio Q96CM8_C64” value is on record as 0.8. For the same compound, the “isoTOP-ABPP ratio Q9NQR4_C153” value in assay [5] (231) is 0.6; in assay [5] (ramos), 1.4.
On to `C=CC(=O)Nc1cc(F)c(N2CCN(C(=O)OC(C)(C)C)CC2)c(F)c1` [compound 38], for which, in assay [1], the “isoTOP-ABPP ratio Q16831_C162” value was determined as 1.4. Also, the “isoTOP-ABPP ratio Q9HAV7_C124” value in assay [8] (231) turned out to be 1.0. For the same compound, in assay [2] (231), the “isoTOP-ABPP ratio P10599_C32” value was 2.1. Further, the “isoTOP-ABPP ratio Q96CM8_C64” value in assay [4] (231) is recorded as 1.1. Also, in assay [5] (231), the “isoTOP-ABPP ratio Q9NQR4_C153” value worked out at 1.1. For the same compound, in assay [6] (231), the “isoTOP-ABPP ratio P51946_C244” value came to 1.0. The “isoTOP-ABPP ratio P62888_C92” value in assay [7] (231) is listed as 3.2.
With `O=C(CCl)Nc1cccc2ncccc12` [compound 51], in assay [1], the “isoTOP-ABPP ratio Q16831_C162” value was 1.1. In addition, the “isoTOP-ABPP ratio P10599_C32” value in assay [2] (231) is given as 13.9. Besides, the “isoTOP-ABPP ratio P42224_C492” value in assay [3] (231) worked out at 2.4. In addition, the “isoTOP-ABPP ratio Q9NQR4_C153” value in assay [5] (231) was 0.6. The “isoTOP-ABPP ratio P51946_C244” value in assay [6] (231) is listed as 0.7. Also, in assay [7] (231), the “isoTOP-ABPP ratio P62888_C92” value was found to be 0.9.
